Experiment: Treatment of a dog with soft tissue sarcoma and lung metastasis by pulmonary aerosol administration
Format: in vivo, dog (Golden Retriever)
Conditions: agent aerosolized alone, without emulsion; general observation
Protocol: A 9 year old Golden Retriever with soft tissue sarcoma and extensive lung metastasis was treated with 9 mg/ml twice weekly for 10 weeks by pulmonary aerosol administration (FIG. 7A & FIG. 7B). […]

Nc1ccn([C@@H]2O[C@H](CO)[C@@H](O)C2(F)F)c(=O)n1 [Gemcitabine, gemcitabine]
necrosis in lung parenchyma and pleural metastasis: severe necrosis is always observed

From patent US12083178B2, “Anti-fibroblastic fluorochemical emulsion therapies” (priority 2010, dated 2024)
